Experimental data reported in patent US20240109930A1, “TRIAZOLYL-METHYL SUBSTITUTED ALPHA-D-GALACTOPYRANOSIDE DERIVATIVES” (Idorsia Pharmaceuticals Ltd, priority 2021, published 2024).

Legend:
human Gal-3 (hGal-3) = human Gal-3 (hGal-3) (Homo sapiens (Human), UniProt P17931); test: Competitive binding assay: biotinylated hGal-3 binding to microplate-adsorbed asialofetuin (ASF); settings: IC50 values from several measurements given as geomean
Outline: (§1)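 Biotinylated hGal-3 or hGal-1 (preferably cysteine-free Cys→Ser mutant), 300–1000 ng/mL, competes with compound for ASF-coated wells for 3 h at 4 °C. Bound lectin detected with streptavidin-peroxidase (80 ng/mL, 1 h, 4 °C) and ABTS by absorbance; IC50 reported as geomean of several runs.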

human Gal-1 (hGal-1) = human Gal-1 (hGal-1) (Homo sapiens, UniProt P09382, C131S/C17S/C43S/C61S/C89S); test: Competitive binding assay: biotinylated hGal-1 binding to microplate-adsorbed asialofetuin (ASF); settings: IC50 values from several measurements given as geomean
Outline: as §1

Chain of human Gal-3 (hGal-3) (P17931 whole entry): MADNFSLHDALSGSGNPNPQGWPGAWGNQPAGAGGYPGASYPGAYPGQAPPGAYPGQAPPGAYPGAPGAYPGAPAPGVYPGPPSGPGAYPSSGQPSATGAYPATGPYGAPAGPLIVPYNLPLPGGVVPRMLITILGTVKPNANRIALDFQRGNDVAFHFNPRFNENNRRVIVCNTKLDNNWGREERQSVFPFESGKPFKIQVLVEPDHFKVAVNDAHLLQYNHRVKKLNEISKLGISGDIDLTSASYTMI

Row | IC50 (human Gal-3 (hGal-3)) | IC50 (human Gal-1 (hGal-1)) | SMILES
1 | 60 nM | 2100 nM | CO[C@@H]1[C@@H](n2cc(-c3ccc(Cl)c(F)c3F)nn2)[C@@H](O)[C@@H](CO)O[C@@H]1Cc1cn(C23CC(OC)(C2)C3)nn1 [Ex 2.1.29.]
2 | 30 nM | 1170 nM | CO[C@@H]1[C@@H](n2cc(-c3ccc(Cl)c(F)c3F)nn2)[C@@H](O)[C@@H](CO)O[C@@H]1Cn1cc(C2(C)COC2)nn1 [Ex 2.2.6.]
3 | 60 nM | 2190 nM | CO[C@@H]1[C@@H](n2cc(-c3ccc(Br)c(F)c3F)nn2)[C@@H](O)[C@@H](CO)O[C@@H]1Cn1cc(C23CCC(N)(CC2)CC3)nn1 [Ex 4.2.39.]
4 | 60 nM | 260 nM | CO[C@@H]1[C@@H](n2cc(-c3ccc(F)c(F)c3F)nn2)[C@@H](O)[C@@H](CO)O[C@@H]1Cc1cn([C@]2(C)C[C@H](O)C2)nn1 [Ex 3.1.19.]
5 | 40 nM | 760 nM | CO[C@@H]1[C@@H](n2cc(-c3ccc(Cl)c(F)c3F)nn2)[C@@H](O)[C@@H](CO)O[C@@H]1Cc1cn(C2(C)COC2)nn1 [Ex 2.1.6.]
6 | 30 nM | 1760 nM | CO[C@@H]1[C@@H](n2cc(-c3ccc(C)c(F)c3F)nn2)[C@@H](O)[C@@H](CO)O[C@@H]1Cc1cn(C2(C)CC(F)(F)C2)nn1 [Ex 1.1.15.]
7 | 60 nM | 810 nM | CO[C@@H]1[C@@H](n2cc(-c3ccc(F)c(F)c3F)nn2)[C@@H](O)[C@@H](CO)O[C@@H]1Cc1cn(C2(CO)CC2)nn1 [Ex 3.1.4.]
8 | 40 nM | 3920 nM | CO[C@@H]1[C@@H](n2cc(-c3ccc(Br)c(F)c3F)nn2)[C@@H](O)[C@@H](CO)O[C@@H]1Cc1cn(C23CC(C2)C3)nn1 [Ex 4.1.12.]
9 | 30 nM | 1480 nM | CO[C@@H]1[C@@H](n2cc(-c3ccc(Br)c(F)c3F)nn2)[C@@H](O)[C@@H](CO)O[C@@H]1Cc1cn(C2(C(F)(F)F)CCC2)nn1 [Ex 4.1.55., (2R,3R,4S,5R,6R)-4-(4-(4-bromo-2,3-difluorophenyl)-1H-1,2,3-triazol-1-yl)-2-(hydroxymethyl)-5-methoxy-6-((1-(1-(trifluoromethyl)cyclobutyl)-1H-1,2,3-triazol-4-yl)methyl)tetrahydro-2H-pyran-3-ol]
10 | 30 nM | 1200 nM | CO[C@@H]1[C@@H](n2cc(-c3ccc(Cl)c(F)c3F)nn2)[C@@H](O)[C@@H](CO)O[C@@H]1Cc1cn([C@]2(C)C[C@H](F)C2)nn1 [Ex 2.1.47.B]
11 | 70 nM | 400 nM | CO[C@@H]1[C@@H](n2cc(-c3ccc(F)c(F)c3F)nn2)[C@@H](O)[C@@H](CO)O[C@@H]1Cc1cn(C2(CF)CC2)nn1 [Ex 3.1.46., (2R,3R,4S,5R,6R)-6-((1-(1-(fluoromethyl)cyclopropyl)-1H-1,2,3-triazol-4-yl)methyl)-2-(hydroxymethyl)-5-methoxy-4-(4-(2,3,4-trifluorophenyl)-1H-1,2,3-triazol-1-yl)tetrahydro-2H-pyran-3-ol]
12 | 30 nM | 1510 nM | CO[C@@H]1[C@@H](n2cc(-c3ccc(Cl)c(F)c3F)nn2)[C@@H](O)[C@@H](CO)O[C@@H]1Cn1cc(C2(C)CCC2)nn1 [Ex 2.2.13.]
13 | 20 nM | 1070 nM | CO[C@@H]1[C@@H](n2cc(-c3ccc(Br)c(F)c3F)nn2)[C@@H](O)[C@@H](CO)O[C@@H]1Cc1cn(C2(C(F)(F)F)COC2)nn1 [Ex 4.1.58.]
14 | 30 nM | 1600 nM | CO[C@@H]1[C@@H](n2cc(-c3ccc(C#N)c(F)c3F)nn2)[C@@H](O)[C@@H](CO)O[C@@H]1Cc1cn([C@H]2CCOC[C@@H]2F)nn1 [Ex 5.1.66.CD]
15 | 40 nM | 3150 nM | CO[C@@H]1[C@@H](n2cc(-c3ccc(C)c(F)c3F)nn2)[C@@H](O)[C@@H](CO)O[C@@H]1Cc1cn([C@H]2CCC[C@@H]2O)nn1 [Ex 1.1.3.]
16 | 40 nM | 2900 nM | CO[C@@H]1[C@@H](n2cc(-c3ccc(Cl)c(F)c3F)nn2)[C@@H](O)[C@@H](CO)O[C@@H]1Cc1cn([C@H]2CCOC[C@H]2F)nn1 [Example 2.1.66.B, (2R,3R,4S,5R,6R)-4-(4-(4-chloro-2,3-difluorophenyl)-1H-1,2,3-triazol-1-yl)-6-((1-((3S,4S)-3-fluorotetrahydro-2H-pyran-4-yl)-1H-1,2,3-triazol-4-yl)methyl)-2-(hydroxymethyl)-5-methoxytetrahydro-2H-pyran-3-ol]
17 | 50 nM | 2610 nM | CO[C@@H]1[C@@H](n2cc(-c3ccc(C)c(F)c3F)nn2)[C@@H](O)[C@@H](CO)O[C@@H]1Cc1cn([C@@H]2COCC[C@H]2O)nn1 [Ex 1.1.1.]
18 | 50 nM | 830 nM | CO[C@@H]1[C@@H](n2cc(-c3ccc(Cl)c(F)c3F)nn2)[C@@H](O)[C@@H](CO)O[C@@H]1Cc1cn(C2(C(F)(F)F)CC3CCC2C3)nn1 (some centres unmarked) [Ex 2.1.70.]
19 | 60 nM | 2550 nM | CO[C@@H]1[C@@H](n2cc(-c3ccc(Cl)c(F)c3F)nn2)[C@@H](O)[C@@H](CO)O[C@@H]1Cn1cc(C2(C(F)F)CC2)nn1 [Ex 2.2.51.]

Row | IC50 (human Gal-3 (hGal-3)) | IC50 (human Gal-1 (hGal-1)) | SMILES
20 | 40 nM | 180 nM | CO[C@@H]1[C@@H](n2cc(-c3ccc(F)c(F)c3F)nn2)[C@@H](O)[C@@H](CO)O[C@@H]1Cc1cn(C2(C(F)(F)F)CCC2)nn1 [Ex 3.1.55., (2R,3R,4S,5R,6R)-2-(hydroxymethyl)-5-methoxy-6-((1-(1-(trifluoromethyl)cyclobutyl)-1H-1,2,3-triazol-4-yl)methyl)-4-(4-(2,3,4-trifluorophenyl)-1H-1,2,3-triazol-1-yl)tetrahydro-2H-pyran-3-ol]
21 | 20 nM | 240 nM | CO[C@@H]1[C@@H](n2cc(-c3ccc(Cl)c(F)c3F)nn2)[C@@H](O)[C@@H](CO)O[C@@H]1Cc1cn(C2(C(F)F)CCOC2)nn1 (single isomer, unassigned) [Example 2.1.78.B]
22 | 30 nM | 1200 nM | CO[C@@H]1[C@@H](n2cc(-c3ccc(Cl)c(F)c3F)nn2)[C@@H](O)[C@@H](CO)O[C@@H]1Cc1cn(C23CCOC(C)(C2)C3)nn1 [Ex 2.1.62., (2R,3R,4S,5R,6R)-4-(4-(4-chloro-2,3-difluorophenyl)-1H-1,2,3-triazol-1-yl)-2-(hydroxymethyl)-5-methoxy-6-((1-(1-methyl-2-oxabicyclo[3.1.1]heptan-5-yl)-1H-1,2,3-triazol-4-yl)methyl)tetrahydro-2H-pyran-3-ol]
23 | 40 nM | 6460 nM | CO[C@@H]1[C@@H](n2cc(-c3ccc(C)c(F)c3F)nn2)[C@@H](O)[C@@H](CO)O[C@@H]1Cc1cn([C@@H]2CCC[C@H]2O)nn1 [Ex 1.1.2.]
24 | 40 nM | 1830 nM | CO[C@@H]1[C@@H](n2cc(-c3ccc(Cl)c(F)c3F)nn2)[C@@H](O)[C@@H](CO)O[C@@H]1Cc1cn(C2(C)CCOC2)nn1 (some centres unmarked) [Ex 2.1.42.]
25 | 40 nM | 1670 nM | CO[C@@H]1[C@@H](n2cc(-c3ccc(Cl)c(F)c3F)nn2)[C@@H](O)[C@@H](CO)O[C@@H]1Cc1cn(C(C)(C)CO)nn1 [Ex 2.1.9.]
26 | 90 nM | 1250 nM | CO[C@@H]1[C@@H](n2cc(-c3ccc(F)c(F)c3F)nn2)[C@@H](O)[C@@H](CO)O[C@@H]1Cn1cc(C2(O)CCCC2)nn1 [Ex 3.2.33.]
27 | 60 nM | 2680 nM | CO[C@@H]1[C@@H](n2cc(-c3ccc(Br)c(F)c3F)nn2)[C@@H](O)[C@@H](CO)O[C@@H]1Cn1cc(C2CCCC2)nn1 [Ex 4.2.32.]
28 | 30 nM | 210 nM | CO[C@@H]1[C@@H](n2cc(-c3ccc(F)c(F)c3F)nn2)[C@@H](O)[C@@H](CO)O[C@@H]1Cc1cn(C2(C(F)F)CCC2)nn1 [Ex 3.1.43., (2R,3R,4S,5R,6R)-6-((1-(1-(difluoromethyl)cyclobutyl)-1H-1,2,3-triazol-4-yl)methyl)-2-(hydroxymethyl)-5-methoxy-4-(4-(2,3,4-trifluorophenyl)-1H-1,2,3-triazol-1-yl)tetrahydro-2H-pyran-3-ol]
29 | 40 nM | 4700 nM | CO[C@@H]1[C@@H](n2cc(-c3ccc(Br)c(F)c3F)nn2)[C@@H](O)[C@@H](CO)O[C@@H]1Cc1cn([C@H]2CCC[C@@H]2O)nn1 [Ex 4.1.3.]
30 | 70 nM | 6070 nM | CO[C@@H]1[C@@H](n2cc(-c3ccc(Cl)c(F)c3F)nn2)[C@@H](O)[C@@H](CO)O[C@@H]1Cc1cn(C23CCC(N)(CC2)CC3)nn1 [Ex 2.2.39.]
31 | 40 nM | 3050 nM | CO[C@@H]1[C@@H](n2cc(-c3ccc(Cl)c(F)c3F)nn2)[C@@H](O)[C@@H](CO)O[C@@H]1Cc1cn([C@H]2CCCC[C@H]2F)nn1 [Example 2.1.81.B, (2R,3R,4S,5R,6R)-4-(4-(4-chloro-2,3-difluorophenyl)-1H-1,2,3-triazol-1-yl)-6-((1-((1S,2R)-2-fluorocyclohexyl)-1H-1,2,3-triazol-4-yl)methyl)-2-(hydroxymethyl)-5-methoxytetrahydro-2H-pyran-3-ol]
32 | 30 nM | 240 nM | CO[C@@H]1[C@@H](n2cc(-c3ccc(F)c(F)c3F)nn2)[C@@H](O)[C@@H](CO)O[C@@H]1Cc1cn(C2(CF)COC2)nn1 [Ex 3.1.52.]
33 | 40 nM | 2460 nM | CO[C@@H]1[C@@H](n2cc(-c3ccc(C)c(F)c3F)nn2)[C@@H](O)[C@@H](CO)O[C@@H]1Cn1cc(C2(CO)CC2)nn1 [Ex 1.2.4.]
34 | 50 nM | 1710 nM | CO[C@@H]1[C@@H](n2cc(-c3ccc(Cl)c(F)c3F)nn2)[C@@H](O)[C@@H](CO)O[C@@H]1Cc1cn(C2(C)CC(F)(F)C2)nn1 [Ex 2.1.15.]
35 | 110 nM | 5000 nM | CO[C@@H]1[C@@H](n2cc(-c3ccc(C)c(F)c3F)nn2)[C@@H](O)[C@@H](CO)O[C@@H]1Cc1cn(C2CC2C(C)C)nn1 (some centres unmarked) [Ex 1.1.17.]
36 | 60 nM | 1710 nM | CO[C@@H]1[C@@H](n2cc(-c3ccc(Cl)c(F)c3F)nn2)[C@@H](O)[C@@H](CO)O[C@@H]1Cn1cc(C2(C)CC2)nn1 [Ex 2.2.23.]
37 | 160 nM | 11500 nM | CO[C@@H]1[C@@H](n2cc(-c3ccc(Cl)c(F)c3F)nn2)[C@@H](O)[C@@H](CO)O[C@@H]1Cc1cn(C2CC2C(C)C)nn1 (some centres unmarked) [Ex 2.1.17.]
